Experimental data taken from PubChem BioAssay (NCI).
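Compound exposure: 48 hours, 5 concentrations, 96-well plates. TGI is the concentration that stops growth completely.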 *1 amine or outer side, *2 acyl side, *3 side chain or, on linkers, in order; H or OH if unused. Where a SMILES comes first, the peptide text is derived from it. The star is where a group is joined. γGlu = O=C(O)[CH](CCC(=O)[*:2])N[*:1]; NHOH = ON*

Columns and labels:
Experiment in all cases: NCI-60 cell line screen, 48 h
OVCAR-4 ovarian = tested on: OVCAR-4 ovarian
EKVX NSCLC = tested on: EKVX NSCLC
SK-MEL-5 melanoma = tested on: SK-MEL-5 melanoma
SF-539 CNS = tested on: SF-539 CNS
OVCAR-5 ovarian = tested on: OVCAR-5 ovarian
CCRF-CEM leukemia = tested on: CCRF-CEM leukemia
UACC-257 melanoma = tested on: UACC-257 melanoma
RPMI-8226 leukemia = tested on: RPMI-8226 leukemia
SK-OV-3 ovarian = tested on: SK-OV-3 ovarian
MDA-N = tested on: MDA-N
SW-620 colon = tested on: SW-620 colon
SK-MEL-28 melanoma = tested on: SK-MEL-28 melanoma

Row | SMILES | TGI (OVCAR-4 ovarian) [µM] | TGI (EKVX NSCLC) [µM] | TGI (SK-MEL-5 melanoma) [µM] | TGI (SF-539 CNS) [µM] | TGI (OVCAR-5 ovarian) [µM] | TGI (CCRF-CEM leukemia) [µM] | TGI (UACC-257 melanoma) [µM] | TGI (RPMI-8226 leukemia) [µM] | TGI (SK-OV-3 ovarian) [µM] | TGI (MDA-N) [µM] | TGI (SW-620 colon) [µM] | TGI (SK-MEL-28 melanoma) [µM]
1 | Fc1ccc(/C=C2\COCC3=C2NC(=S)NC3c2ccc(F)cc2)cc1 (stereo unspecified) | 38.5 | 42.6 | 33.5 | 36.9 | 47 | 45.7 | 34.2 | 44.4 | 79.8 | 34.2 | 36 | 
2 | CCCCCCc1cc2cc(C(=O)Nc3nc(C45CC6CC(CC(C6)C4)C5)cs3)c(=O)oc2cc1O | 42.1 | 51.4 | 24.7 | 38.6 | 71.3 | 50.5 | 68 | 39 | 49 | 40.2 | > 100 | > 100
3 | CCCCOc1ccc(/C=C/C2=[N+](CCO)CCO2)cc1 | > 100 | > 100 | > 100 | 96.2 | > 100 | 67.1 | > 100 | 74.7 | > 100 | > 100 | 86.5 | > 100
4 | O=C1O/C(=C(\Br)c2ccc([N+](=O)[O-])cc2)c2ccccc21 | > 100 | > 100 | > 100 | > 100 | > 100 | 62.7 | > 100 | > 61.8 | > 100 | > 100 | > 100 | > 100
5 | CCCCOC(=O)Nc1ccc(S(=O)(=O)Nc2c(Cl)cccc2Cl)cc1 | 42.5 | 71.6 | 28 | 80 | > 100 | > 100 | > 100 | 41.5 | 75.3 | > 100 | 90.1 | 81.5
6 | COc1cc(O)c2c(=O)c3cccc(C)c3[nH]c2c1 | > 10 | > 10 | > 10 | > 10 | > 10 | > 10 | > 10 | > 10 | > 10 | > 10 | > 10 | > 10
7 | Fc1ccc(F)c(C=NC23CC4CC(CC(C4)C2)C3)c1 | > 10 | > 10 | > 10 | > 10 | > 10 | > 10 | > 10 | > 10 | > 10 | > 10 | > 10 | > 10
8 | O=S(=O)(O)c1cc(O)c(N=NC2S(=O)(=O)OCCOS2(=O)=O)c2ccccc12 | > 100 | > 100 | > 100 | > 100 | > 100 | > 100 | > 100 | > 100 | > 100 | > 100 | > 100 | > 100
9 | CCOC(=O)c1nc2ccccc2nc1Nc1cc(OC)c(OC)c(OC)c1 | > 100 | > 100 | > 100 | > 100 | > 100 | > 100 |  | > 100 | > 100 | > 100 |  | > 100
10 | NC(CCC(=O)NC(CCC(=O)NO)C(=O)NCC(=O)O)C(=O)O (stereo unspecified) (γGlu-Glu(NHOH)-Gly-OH; configuration not given here) | > 100 | > 100 | > 100 | > 100 | > 100 | > 100 | > 100 | > 100 | > 100 | > 100 | > 100 | > 100
11 | CCCSc1ccc2[nH]c(N3C(=O)/C(=C/c4ccc(O)c(OC)c4)N=C3c3ccccc3)cc2c1 |  | 67.4 | 16.1 | 49 | 44.3 | 93.8 | 51.8 | 34.3 | 76.3 | 5.26 | > 100 | > 100
12 | COc1ccc(Nc2nc3ccccc3nc2-c2cccs2)cc1OC | > 10 | > 10 | > 10 | > 10 | > 10 | > 10 | > 10 | > 10 | > 10 | > 10 | > 10 | > 10
13 | O=[N+]([O-])C1=Cc2c(O)ccc(O)c2C2OC=CC12 (stereo unspecified) | 30.2 | 36.8 | 26.2 | 47.5 | 51.5 | > 26.8 | 29.9 | > 100 | > 100 | 11.4 | > 77.4 | > 74.5
14 | CN(C)c1ccc(-c2c(C#N)c(-c3ccccc3)n(NS(=O)(=O)c3ccccc3)c(=O)c2C#N)cc1 | > 100 | > 100 | 46.8 | > 100 | > 100 | 83.5 | > 100 | 48.6 | > 100 | > 100 | > 100 | > 100
15 | C[C@]12CCC(=O)C=C1CC[C@@H]1[C@@H]2CC[C@]2(C)C(=O)/C(=C/c3ccc([N+](=O)[O-])cc3)C[C@@H]12 |  | > 100 | > 100 | > 100 | > 100 | > 100 | > 100 | > 100 | > 100 | > 100 | > 100 | > 100
16 | CC1=NN(c2ccccc2)C(=O)/C1=C1\SC(c2ccccc2)(c2ccccc2)c2ccccc21 | > 100 | > 100 | > 100 | > 100 | > 100 | > 100 | > 100 | > 100 | > 100 | > 100 | > 100 | > 100
17 | O=C(Nc1ccc(Cl)cc1)c1cc(S(=O)(=O)Nc2nc3ncccc3[nH]2)c(SSc2cc(Cl)c(C(=O)Nc3ccc(Cl)cc3)cc2S(=O)(=O)Nc2nc3ncccc3[nH]2)cc1Cl | > 100 | > 100 | > 100 | > 100 | > 100 | > 100 | > 100 | > 100 | > 100 | > 100 | > 100 | > 100
18 | CN(C)CCNc1c(O)c2c(c(O)c1Cl)C(=O)C=CC2=O | 3.29 | 7.69 | 2.88 | 3.28 | 3.12 | 4.72 | 3.09 | 8.14 | 32.1 | 4.64 | 3.91 | 4.36
19 | CC(Nc1cccc(Cl)c1)c1ccncc1 (stereo unspecified) | > 100 | > 100 | > 100 | > 100 | > 100 | > 100 | > 100 | > 100 | > 100 | > 100 | > 100 | > 100

Row | SMILES | TGI (OVCAR-4 ovarian) [µM] | TGI (EKVX NSCLC) [µM] | TGI (SK-MEL-5 melanoma) [µM] | TGI (SF-539 CNS) [µM] | TGI (OVCAR-5 ovarian) [µM] | TGI (CCRF-CEM leukemia) [µM] | TGI (UACC-257 melanoma) [µM] | TGI (RPMI-8226 leukemia) [µM] | TGI (SK-OV-3 ovarian) [µM] | TGI (MDA-N) [µM] | TGI (SW-620 colon) [µM] | TGI (SK-MEL-28 melanoma) [µM]
20 | Cc1cc2c(cc1Cl)SSc1cc(Cl)c(C)cc1S(=O)(=O)Nc1nc(N)nn1C(O)n1nc(N)nc1NS2(=O)=O | > 10 | > 10 | > 10 | > 10 | > 10 | > 10 | > 10 | > 10 | > 10 | > 10 | > 10 | > 10
21 | COc1cc2ncnc(Nc3cccc(Br)c3)c2cc1OC | > 49.8 | 31.9 | 5.67 | 17 | 25 | > 89.8 | > 40.9 | > 100 | 19 | > 42.9 | > 50.2 | > 44.9
22 | c1ccc(C/C(=N\Nc2nc3ccccc3[nH]2)c2ccccn2)cc1 | 10.4 |  | 4.65 | 0.741 | 8.14 | 0.375 | 1.54 | 0.131 | 0.413 | 12.8 | 15.1 | 11
23 | N#C/C=C(/NC(=O)Nc1ccccc1)N1CCCC1 | > 100 | > 97 | > 100 | > 65.7 | > 100 | > 100 | > 100 | > 100 | > 100 | > 100 | > 63.7 | > 83.3
24 | Cc1ccc(S(=O)(=O)N(CC(O)COc2ccccc2)c2c(F)c(F)c(F)c(F)c2F)cc1 (stereo unspecified) | 29.2 | 35.3 | 25.5 | 34.4 | 34.1 |  |  | 12.7 | 43.8 | 32.7 | 36.2 | 31.6
25 | CN(C)CC1CCC/C(=C\c2ccc(Cl)c(Cl)c2)C1=O (stereo unspecified) | 14.3 | 25.5 | 22.7 | 12.5 | 37.4 | 2.68 | 21.7 | 1.03 | 20.3 | 12.7 | > 29.3 | 11.4
26 | O=C1C(NS(=O)(=O)c2ccccc2)=C(n2ccnc2)C(=O)c2ccccc21 | > 100 | > 100 | > 100 | > 100 | > 100 | > 100 | > 100 | > 100 | > 100 | > 100 | > 100 | > 100
27 | CCOC(=O)Cn1nnc2ccc(Nc3nc4ccccc4nc3C(=O)OCC)cc21 | > 100 | > 100 | > 100 | 91.8 | > 100 | > 100 | > 100 | > 100 | > 100 | > 100 | > 100 | > 100
28 | CCOC(=O)N1CCC2(CC1)C[C@](Sc1ccccc1)(C(C)=O)[C@H](C)O2 | > 100 | > 100 | > 100 | > 100 | > 100 | > 100 | > 100 | > 100 | > 100 | > 100 | > 100 | > 100
29 | CCCCCCCCCCCCCOCCOCCOCCCCC(O)CCCCCCCCCC1=C[C@H](C)OC1=O (stereo partly specified) | 71.9 |  | 30.2 | 45.3 | 78.7 | > 100 | 37.7 | 35.9 | > 100 | 45.3 | 76.9 | 31.5
30 | OC1CCN2Cc3ccccc3N=C12 (stereo unspecified) | > 100 | > 100 | > 100 | > 100 | > 100 | > 100 | > 100 | > 100 | > 100 | > 100 | > 100 | > 100
31 | COc1nc2ncc([C@@H](OC(C)=O)[C@@H](COC(C)=O)OC(C)=O)nc2c(=O)n1C | > 100 | > 100 | > 100 | > 100 | > 100 | > 100 | > 100 | > 100 | > 100 | > 100 | > 100 | > 100
32 | CC1=C[C@H](C[C@]2(C)c3c(c4c(C)cccc4oc3=O)O[C@@H]2C)OC1=O |  | > 100 | > 100 | > 100 | > 100 | 74.7 | > 100 | 18.1 | > 100 | > 100 | 75 | 
33 | CCN(CC)P(=O)(c1ccc2c(c1)OCCOCCOCCOCCO2)N(CC)CC |  | > 100 | > 100 | > 100 |  | > 100 |  | > 100 | > 100 | > 100 | > 100 | > 100
34 | C/C(=N/NC(=S)N1CCCCCC1)c1cccc(/C(C)=N\NC(=S)N2CCCCCC2)n1 | 2.44 | 7.98 | 2.72 | 3.15 | 5.26 |  | 3.45 | 5.33 | 4.1 | 4.9 | 3.55 | 6
35 | O=C1CC(Nc2ccccc2)c2c(Cl)sc(Cl)c21 (stereo unspecified) | 4.21 | 3.4 | 16.8 | 2.24 | 6.23 | 0.442 | 3.86 | 0.0461 | 26.3 | 3.33 |  | 3.54
36 | CN(C)N1C(=C(C#N)C#N)C(c2ccccc2)CC1C#N (stereo unspecified) |  | > 100 | > 100 | > 100 | > 100 | > 100 | > 100 | > 100 | > 100 | > 100 | > 100 | > 100
37 | CC(=O)Oc1ccc2c(c1)O/C(=C\c1ccc(N(C)C)cc1)C2=O | > 100 | > 100 | > 100 | > 100 |  | > 100 | > 100 | > 100 | > 100 | > 100 | > 100 | > 100
